From PMC10746280, “Bacterial efflux pump modulators prevent bacterial growth in macrophages and under broth conditions that mimic the host environment” (mBio, 2023)

Columns and labels:
[1] = system: S. Typhimurium SL1344 (sifB::gfp) in RAW 264.7 macrophages; experiment: SAFIRE macrophage assay: intracellular bacterial load (GFP signal within macrophages); type: cell-based, Salmonella enterica serotype Typhimurium; conditions: for IC50: Salmonella enterica, TYPHIMURIUM, RAW264.7, read-out: SAFIRE IC50
From the text: (§1) In SAFIRE, we used MATLAB software to count the number of macrophages that remain adherent and retain the red fluorescence of MitoTracker, an indicator of voltage across the mitochondrial inner membrane. MATLAB then calculates the signal from bacteria (green fluorescent protein [GFP]) that overlaps with macrophages, as defined by MitoTracker, to estimate bacterial load. […] For example, we observed that the 6-trifluoropyrimidin-2-yl group on the right-hand side of EPM35 is apparently toxic to macrophages. Non-toxic analogs that reduced bacterial load by at least 60% at 5 µM and 25 µM in SAFIRE, as compared with DMSO, progressed and were evaluated in SAFIRE across eight or more concentrations, ranging from 0.001 µM to 50 µM (n = 2). […] Each of the top 13 analogs had at least an eightfold increase in potency and were not toxic for macrophages at 50 µM in the SAFIRE assay (Fig. 1C).
(§2) As previously described ([18]), RAW 264.7 macrophages (between passages 1 and 6) were grown in complete Dulbecco’s modified Eagle’s medium (DMEM) to approximately 70% to 90% confluence, scraped, washed, resuspended, diluted to 5 × 10^4 in 100 µL, and seeded in black, 96-well, glass-bottomed plates (Brooks Life Sciences catalog number MGB096-1-2-LG-L) at 37°C with 5% CO2. Twenty-four hours later, bacteria grown overnight in LB were diluted into 50 µL phosphate buffered saline (PBS) and added to a final concentration of 1 × 10^7 S. Typhimurium SL1344 (sifB::gfp) per milliliter ([78]) for an approximate multiplicity of infection of 30 bacteria per macrophage cell. Forty-five minutes after bacterial addition, gentamicin (Sigma catalog number G1264) was added to a final concentration of 40 µg/mL to inhibit the growth of remaining extracellular bacteria. Two hours after infection, gentamicin-containing medium was removed and replaced with 200 µL fresh DMEM with compound or DMSO (Sigma catalog number 276855) to the stated final concentrations. At 17.5 h after infection, PBS containing MitoTracker Red CMXRos (Life Technologies catalog number M7512), a vital dye for mitochondrial electric potential, was added to a final concentration of 100 nM. At 18 h after infection, 16% paraformaldehyde was added to a final concentration of 4% and incubated at room temperature for 15 min. Cells were washed twice with PBS and stained for 20 min with 1 µM 4′,6-diamidino-2-phenylindole (DAPI), a vital dye for double-stranded DNA, and stored in 90% glycerol in PBS until imaging. Samples were imaged in six fields of view per well using a semiautomated Yokogawa CellVoyager CV1000 confocal scanner system with a 20×, 0.75-numerical aperture (NA) objective. A MATLAB algorithm calculated bacterial accumulation (GFP fluorescence) within macrophages, as defined by DAPI and MitoTracker Red. GFP^+ macrophage area was defined as the number of GFP-positive pixels per macrophage divided by the total number of pixels per macrophage, averaged across all macrophages in the field ([34]).

RAW 264.7 macrophages = experiment: SAFIRE macrophage assay: host toxicity (adherent macrophage count, morphology); type: cell-based
From the text: as §1, §2

[2] = 5 uM, 'Toxic' given instead of a score
[3] = 25 uM, 'Toxic' given instead of a score
[4] = 5 uM compound, n=1, DMSO solvent control = 98, rifampicin 2 μg/mL = 65
[5] = 25 uM compound, n=1, DMSO solvent control = 98, rifampicin 2 μg/mL = 65
[6] = 5 uM compound, n=1, DMSO solvent control = 100
[7] = 25 uM compound, n=1, DMSO solvent control = 100

Compound	5 uM Avg Antibacterial Score [1, 2]	25 uM Avg Antibacterial Score [1, 3]	5 uM Avg Cell # Score (RAW 264.7 macrophages; 5 uM)	25 uM Avg Cell # Score (RAW 264.7 macrophages; 25 uM)	5 uM Avg Antibacterial Score [1, 4]	25 uM Avg Antibacterial Score [1, 5]	IC50 [1]	5 uM Avg Cell # Score (RAW 264.7 macrophages; [6])	25 uM Avg Cell # Score (RAW 264.7 macrophages; [7])
OC(COc1cccc2ncccc12)CN1CCC(Nc2nccc(C(F)(F)F)n2)CC1 (stereo not shown) [CU186]	101	9	121	72	–	–	–	–	–
N[C@@H]1CCN(C[C@H](O)COc2ccc(Cl)c(Cl)c2)C1 [CU237]	–	–	–	–	34	11	8.2 nM	125	107
COc1ccccc1OCC(O)CN1CCC(Nc2nccc(C(F)(F)F)n2)C1 (stereo not shown) [CU095]	100	43	88	83	–	–	–	–	–
NC1CCN(CC(O)COc2c(Cl)cccc2Cl)CC1 (stereo not shown) [CU192]	52	30	96	92	–	–	6.9 nM	–	–
OC(COc1ccccc1)CN1CCC(Nc2nccc(C(F)(F)F)n2)C1 (stereo not shown) [CU083]	100	32	89	95	–	–	–	–	–
CSc1ccc(OCC(O)CN2CCC(Nc3nccc(C(F)(F)F)n3)CC2)cc1 (stereo not shown) [CU147]	72	Toxic	121	43	–	–	–	–	–
Cc1ccc(Cl)c(OCC(O)CN2CCC(Nc3nccc(C(F)(F)F)n3)CC2)c1 (stereo not shown) [CU148]	48	Toxic	123	39	–	–	–	–	–
OC(COc1c(Cl)cccc1Cl)CN1CCC(Nc2nccc(C(F)(F)F)n2)CC1 (stereo not shown) [CU109]	56	Toxic	74	44	–	–	–	–	–
OC(COc1ccc2c(c1)OCO2)CN1CCC(Nc2nccc(C(F)(F)F)n2)CC1 (stereo not shown) [CU080]	96	7.4	86	91	–	–	–	–	–
OC(COc1ccc2ccccc2c1)CN1CCC(Nc2nccc(C(F)(F)F)n2)CC1 (stereo not shown) [CU078]	7.5	Toxic	87	133	–	–	–	–	–
CN(CC(O)COc1ccc(Cl)c(Cl)c1)C1CCNCC1 (stereo not shown) [CU177]	45	16	101	96	–	–	–	–	–
CC(C)(C)c1nc(NC(=N)N)sc1Br [EPM30]	92	Toxic	97	66	–	–	–	–	–
Cc1cccc(OCC(O)CN2CCC(Nc3nccc(C(F)(F)F)n3)CC2)c1 (stereo not shown) [CU108]	28	Toxic	94	27	–	–	–	–	–
OC(COc1ccc(Cl)cc1Cl)CN1CCC(Nc2nccc(C(F)(F)F)n2)CC1 (stereo not shown) [CU038]	95	Toxic	85	181	–	–	–	–	–
NC(=O)N1CCN(CC(O)COc2ccc(Cl)c(Cl)c2)CC1 (stereo not shown) [CU067]	104	101	79	88	–	–	–	–	–
CC(C)(C)OC(=O)NC1CCN(CC(O)COc2ccc(Cl)c(Cl)c2)C1 (stereo not shown) [CU031]	102	Toxic	88	140	–	–	–	–	–
NCCC1CCN(CC(O)COc2ccc(Cl)c(Cl)c2)C1 (stereo not shown) [CU251]	–	–	–	–	100	103	–	108	101
CN(CC(O)COc1ccc(Cl)c(Cl)c1)C1CCOC1 (stereo not shown) [CU122]	102	81	81	74	–	–	–	–	–
N[C@@H]1CCN(CC(O)COc2ccc(Cl)c(Cl)c2)C1 (stereo partly shown) [CU193]	28	14	100	98	–	–	11.5 nM	–	–
COC(=O)c1ccc(OCC(O)CN2CCC(Nc3nccc(C(F)(F)F)n3)C2)cc1 (stereo not shown) [CU091]	97	9.52	89	95	–	–	–	–	–
NC1CCN(CC(O)COc2ccc(F)cc2)C1 (stereo not shown) [CU153]	106	85	103	131	–	–	–	–	–
COc1cccc(OCC(O)CN2CCC(Nc3nccc(C(F)(F)F)n3)CC2)c1 (stereo not shown) [CU081]	102	17	94	93	–	–	–	–	–
OC(COc1ccccc1F)CN1CCC(Nc2nccc(C(F)(F)F)n2)CC1 (stereo not shown) [CU105]	102	14	79	98	–	–	–	–	–
OC(COc1ccc(Cl)c(Cl)c1)CN1C2CCC1COC2 (stereo not shown) [CU222]	101	72	108	103	–	–	–	–	–
OC(COc1ccc(-c2ccccc2)cc1)CN1CCC(Nc2nccc(C(F)(F)F)n2)CC1 (stereo not shown) [CU077]	11	Toxic	35	114	–	–	–	–	–
OC(COc1ccc(F)cc1)CN1CCC(Nc2nccc(C(F)(F)F)n2)CC1 (stereo not shown) [CU037]	106	23	74	117	–	–	–	–	–
OC(COc1ccc(Cl)c(Cl)c1)CN1CCC(Oc2ncccn2)CC1 (stereo not shown) [CU158]	110	61	106	103	–	–	–	–	–
N[C@H]1CC[C@H](NCC(O)COc2cc(Cl)cc(Cl)c2)CC1 (stereo partly shown) [CU217]	65	16	106	96	–	–	–	–	–
